{
  "source": "paper PMC8799717",
  "about": "“Pharmacological targeting PIKfyve and tubulin as an effective treatment strategy for double-hit lymphoma” (Cell Death Discovery, 2022)",
  "assay_in_all_cases": "biochemical",
  "set-up_in_all_cases": "KINOMEscan active-site-directed competition binding panel, 468 kinases, percent of DMSO control at 1 uM",
  "conditions_in_all_cases": "KINOMEscan binding, percent of DMSO control; read-out: Ctrl%",
  "key": {"[1]": {"biological_target": "RIOK2 (Homo sapiens, UniProt Q9BVS4)"}, "[2]": {"biological_target": "CDK3 (Homo sapiens, UniProt Q00526)"}, "[3]": {"biological_target": "EGFR(E746-A750del) (Homo sapiens, UniProt P00533, DEL746-750)"}, "[4]": {"biological_target": "BUB1 (Homo sapiens, UniProt O43683)"}, "[5]": {"biological_target": "NEK10 (Homo sapiens, UniProt Q6ZWH5)"}, "[6]": {"biological_target": "NEK6 (Homo sapiens, UniProt Q9HC98)"}, "[7]": {"biological_target": "NEK3 (Homo sapiens, UniProt P51956)", "sequence (P51956 whole entry)": "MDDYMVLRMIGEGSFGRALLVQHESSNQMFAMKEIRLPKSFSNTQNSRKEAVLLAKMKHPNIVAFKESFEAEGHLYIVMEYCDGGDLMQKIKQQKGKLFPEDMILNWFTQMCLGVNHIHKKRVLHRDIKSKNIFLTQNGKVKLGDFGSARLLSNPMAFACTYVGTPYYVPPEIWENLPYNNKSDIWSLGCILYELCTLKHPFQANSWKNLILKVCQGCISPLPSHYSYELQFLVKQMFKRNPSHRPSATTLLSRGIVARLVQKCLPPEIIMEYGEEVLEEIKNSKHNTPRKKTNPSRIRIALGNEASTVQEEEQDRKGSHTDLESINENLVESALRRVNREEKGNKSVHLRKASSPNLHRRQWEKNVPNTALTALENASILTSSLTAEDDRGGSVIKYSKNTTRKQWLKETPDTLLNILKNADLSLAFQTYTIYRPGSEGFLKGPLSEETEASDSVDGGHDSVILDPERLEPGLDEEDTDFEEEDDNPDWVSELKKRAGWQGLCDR"}, "[8]": {"biological_target": "PAK1 (Homo sapiens, UniProt Q13153)"}, "[9]": {"biological_target": "MELK (Homo sapiens, UniProt Q14680)", "sequence (Q14680 whole entry)": "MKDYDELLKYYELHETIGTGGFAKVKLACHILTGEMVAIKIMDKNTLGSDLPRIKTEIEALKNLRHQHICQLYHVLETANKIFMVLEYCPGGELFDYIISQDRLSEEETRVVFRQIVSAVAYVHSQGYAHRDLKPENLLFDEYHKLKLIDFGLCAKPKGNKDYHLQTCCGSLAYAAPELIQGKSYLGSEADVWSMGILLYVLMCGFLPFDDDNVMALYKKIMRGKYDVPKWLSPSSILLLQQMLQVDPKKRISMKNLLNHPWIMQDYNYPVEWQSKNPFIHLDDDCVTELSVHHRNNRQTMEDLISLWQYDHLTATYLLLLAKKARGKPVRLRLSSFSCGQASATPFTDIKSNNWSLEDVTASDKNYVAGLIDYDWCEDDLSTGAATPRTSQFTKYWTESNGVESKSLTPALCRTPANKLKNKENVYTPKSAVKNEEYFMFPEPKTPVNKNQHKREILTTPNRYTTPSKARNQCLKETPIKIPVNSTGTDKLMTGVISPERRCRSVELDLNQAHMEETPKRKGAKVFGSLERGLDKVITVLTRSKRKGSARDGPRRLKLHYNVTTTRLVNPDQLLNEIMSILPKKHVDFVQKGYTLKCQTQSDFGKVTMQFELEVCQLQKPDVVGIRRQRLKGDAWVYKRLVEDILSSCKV"}, "[10]": {"biological_target": "EPHB3 (Homo sapiens, UniProt P54753)", "sequence (P54753 whole entry)": "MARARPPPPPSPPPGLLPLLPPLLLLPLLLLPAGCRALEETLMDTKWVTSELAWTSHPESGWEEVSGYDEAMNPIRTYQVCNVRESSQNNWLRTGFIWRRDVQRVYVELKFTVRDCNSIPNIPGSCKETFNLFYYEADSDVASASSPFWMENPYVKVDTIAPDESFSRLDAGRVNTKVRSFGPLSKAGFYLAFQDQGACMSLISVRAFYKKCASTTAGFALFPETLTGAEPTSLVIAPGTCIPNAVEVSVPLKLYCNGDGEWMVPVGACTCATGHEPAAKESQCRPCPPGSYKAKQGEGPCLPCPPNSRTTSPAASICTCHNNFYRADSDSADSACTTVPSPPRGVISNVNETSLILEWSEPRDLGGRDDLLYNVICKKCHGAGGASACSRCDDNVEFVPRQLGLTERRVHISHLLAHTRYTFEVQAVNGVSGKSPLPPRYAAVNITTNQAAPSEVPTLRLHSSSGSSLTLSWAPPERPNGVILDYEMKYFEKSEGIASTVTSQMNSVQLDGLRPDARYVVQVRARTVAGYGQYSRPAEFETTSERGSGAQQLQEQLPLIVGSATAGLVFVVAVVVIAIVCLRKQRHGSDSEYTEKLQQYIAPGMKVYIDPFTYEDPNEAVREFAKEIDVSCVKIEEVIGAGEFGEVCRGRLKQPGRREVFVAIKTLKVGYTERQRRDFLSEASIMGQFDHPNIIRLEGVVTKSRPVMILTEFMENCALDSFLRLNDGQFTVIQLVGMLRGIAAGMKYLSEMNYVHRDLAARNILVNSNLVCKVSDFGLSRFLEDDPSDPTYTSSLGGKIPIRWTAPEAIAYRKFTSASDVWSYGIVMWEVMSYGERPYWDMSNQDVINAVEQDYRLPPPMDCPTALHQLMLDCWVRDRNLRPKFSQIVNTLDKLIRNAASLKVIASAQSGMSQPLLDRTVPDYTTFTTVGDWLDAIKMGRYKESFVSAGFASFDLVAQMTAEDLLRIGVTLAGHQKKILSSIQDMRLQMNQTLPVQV"}, "[11]": {"biological_target": "T1, VPS34 (Homo sapiens, UniProt Q8NEB9)", "T1 construct": "gene PIK3C3"}, "[12]": {"biological_target": "T2, MLK3 (Homo sapiens, UniProt Q16584)", "T2 construct": "gene MAP3K11", "T2 sequence (Q16584 whole entry)": "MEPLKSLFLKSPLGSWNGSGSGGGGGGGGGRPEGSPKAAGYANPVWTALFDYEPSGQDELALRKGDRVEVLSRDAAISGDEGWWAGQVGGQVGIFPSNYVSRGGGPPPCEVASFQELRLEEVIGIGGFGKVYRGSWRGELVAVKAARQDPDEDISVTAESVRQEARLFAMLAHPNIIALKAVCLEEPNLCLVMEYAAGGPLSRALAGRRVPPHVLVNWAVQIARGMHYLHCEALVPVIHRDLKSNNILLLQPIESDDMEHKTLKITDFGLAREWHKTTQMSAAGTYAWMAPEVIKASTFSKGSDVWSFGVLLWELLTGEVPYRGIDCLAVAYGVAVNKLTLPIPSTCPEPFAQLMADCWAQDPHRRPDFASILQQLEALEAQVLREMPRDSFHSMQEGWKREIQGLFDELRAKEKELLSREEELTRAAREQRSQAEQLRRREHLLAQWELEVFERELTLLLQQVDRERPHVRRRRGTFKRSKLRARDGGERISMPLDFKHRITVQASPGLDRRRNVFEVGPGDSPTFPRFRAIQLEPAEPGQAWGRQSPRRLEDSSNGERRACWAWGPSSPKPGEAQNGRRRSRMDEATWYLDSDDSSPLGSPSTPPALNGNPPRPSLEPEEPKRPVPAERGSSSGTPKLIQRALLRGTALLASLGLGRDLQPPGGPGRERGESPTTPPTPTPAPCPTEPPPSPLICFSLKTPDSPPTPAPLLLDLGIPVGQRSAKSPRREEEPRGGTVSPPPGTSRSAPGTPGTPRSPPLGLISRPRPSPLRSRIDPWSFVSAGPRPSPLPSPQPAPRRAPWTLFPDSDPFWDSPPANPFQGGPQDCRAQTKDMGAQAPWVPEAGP"}, "[13]": {"biological_target": "PIM1 (Homo sapiens, UniProt P11309)"}, "[14]": {"biological_target": "T3, ERK5 (Homo sapiens, UniProt Q13164)", "T3 construct": "gene MAPK7", "T3 sequence (Q13164 whole entry)": "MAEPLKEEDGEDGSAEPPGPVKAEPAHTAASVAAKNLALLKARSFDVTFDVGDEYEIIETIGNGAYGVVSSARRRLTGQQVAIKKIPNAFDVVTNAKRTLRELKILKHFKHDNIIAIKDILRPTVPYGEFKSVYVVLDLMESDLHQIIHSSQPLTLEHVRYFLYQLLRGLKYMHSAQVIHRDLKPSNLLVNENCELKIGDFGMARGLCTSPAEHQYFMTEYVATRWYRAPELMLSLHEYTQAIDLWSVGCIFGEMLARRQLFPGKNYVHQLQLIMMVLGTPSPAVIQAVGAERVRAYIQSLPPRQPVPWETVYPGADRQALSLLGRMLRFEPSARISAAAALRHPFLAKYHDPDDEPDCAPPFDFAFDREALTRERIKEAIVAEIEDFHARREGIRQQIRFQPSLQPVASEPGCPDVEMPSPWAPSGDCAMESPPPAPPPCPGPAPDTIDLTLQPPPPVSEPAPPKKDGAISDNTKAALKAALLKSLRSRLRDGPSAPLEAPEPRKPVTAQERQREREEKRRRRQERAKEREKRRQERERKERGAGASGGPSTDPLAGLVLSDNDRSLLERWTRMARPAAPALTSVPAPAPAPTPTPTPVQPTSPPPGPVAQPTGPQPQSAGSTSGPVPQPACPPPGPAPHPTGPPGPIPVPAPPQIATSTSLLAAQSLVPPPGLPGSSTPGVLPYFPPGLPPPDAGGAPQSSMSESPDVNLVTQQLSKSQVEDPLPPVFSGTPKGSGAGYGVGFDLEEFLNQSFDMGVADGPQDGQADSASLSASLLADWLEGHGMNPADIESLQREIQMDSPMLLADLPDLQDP"}, "[15]": {"biological_target": "TAOK2 (Homo sapiens, UniProt Q9UL54)"}, "[16]": {"biological_target": "FLT4 (Homo sapiens, UniProt P35916)"}, "[17]": {"biological_target": "T4, PIK4CB (Homo sapiens, UniProt Q9UBF8)", "T4 construct": "gene PI4KB"}, "[18]": {"biological_target": "SRC (Homo sapiens, UniProt P12931)"}, "[19]": {"biological_target": "PIM2 (Homo sapiens, UniProt Q9P1W9)"}, "[20]": {"biological_target": "LATS1 (Homo sapiens, UniProt O95835)"}, "[21]": {"biological_target": "BTK (Homo sapiens, UniProt Q06187)", "sequence (Q06187 whole entry)": "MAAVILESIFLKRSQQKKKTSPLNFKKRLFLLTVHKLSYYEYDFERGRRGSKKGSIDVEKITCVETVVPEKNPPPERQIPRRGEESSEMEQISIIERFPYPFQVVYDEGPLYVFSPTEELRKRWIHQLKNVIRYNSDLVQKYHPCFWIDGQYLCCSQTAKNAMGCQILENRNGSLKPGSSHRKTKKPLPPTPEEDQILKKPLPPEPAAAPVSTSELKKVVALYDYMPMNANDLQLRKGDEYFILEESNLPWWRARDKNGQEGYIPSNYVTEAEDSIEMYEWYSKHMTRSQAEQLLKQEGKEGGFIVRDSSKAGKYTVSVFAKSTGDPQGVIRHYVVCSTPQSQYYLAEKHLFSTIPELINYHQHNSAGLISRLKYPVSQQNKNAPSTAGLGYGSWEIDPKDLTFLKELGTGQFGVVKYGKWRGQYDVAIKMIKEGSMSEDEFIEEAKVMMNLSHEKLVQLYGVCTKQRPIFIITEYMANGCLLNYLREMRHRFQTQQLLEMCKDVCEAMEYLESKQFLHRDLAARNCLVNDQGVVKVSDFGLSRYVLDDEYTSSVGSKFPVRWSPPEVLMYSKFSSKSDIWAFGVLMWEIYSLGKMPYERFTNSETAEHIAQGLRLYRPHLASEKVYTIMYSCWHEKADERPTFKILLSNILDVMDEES"}, "[22]": {"biological_target": "EPHA6 (Homo sapiens, UniProt Q9UF33)"}, "[23]": {"biological_target": "T5, YANK3 (Homo sapiens, UniProt Q86UX6)", "T5 construct": "gene STK32C", "T5 sequence (Q86UX6 whole entry)": "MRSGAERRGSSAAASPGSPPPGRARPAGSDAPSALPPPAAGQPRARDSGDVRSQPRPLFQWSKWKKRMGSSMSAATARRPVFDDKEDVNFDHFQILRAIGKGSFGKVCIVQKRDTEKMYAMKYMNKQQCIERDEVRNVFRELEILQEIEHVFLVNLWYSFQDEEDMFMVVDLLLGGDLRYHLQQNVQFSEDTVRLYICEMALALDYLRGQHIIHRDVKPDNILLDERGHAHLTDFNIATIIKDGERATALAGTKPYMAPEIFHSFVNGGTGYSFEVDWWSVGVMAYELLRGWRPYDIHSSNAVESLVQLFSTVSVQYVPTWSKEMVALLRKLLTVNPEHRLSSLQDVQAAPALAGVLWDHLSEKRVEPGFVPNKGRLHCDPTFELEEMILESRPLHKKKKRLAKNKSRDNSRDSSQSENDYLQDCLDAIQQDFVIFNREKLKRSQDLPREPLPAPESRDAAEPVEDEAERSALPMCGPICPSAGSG"}, "[24]": {"biological_target": "T6, JNK1 (Homo sapiens, UniProt P45983)", "T6 construct": "gene MAPK8"}},
  "data": [
    {"smiles": "Cc1ccc(NC(=O)c2cccc(C(F)(F)F)c2)cc1Nc1cc(-c2cccnc2)nc2[nH]ccc12", "note": "[HZX-02-059]", "values": [
      {"measurement": "remaining binding at 1 µM", "setting": "[1]", "result": 91, "unit": "%"},
      {"measurement": "remaining binding at 1 µM", "setting": "[2]", "result": 100, "unit": "%"},
      {"measurement": "remaining binding at 1 µM", "setting": "[3]", "result": 90, "unit": "%"},
      {"measurement": "remaining binding at 1 µM", "setting": "[4]", "result": 100, "unit": "%"},
      {"measurement": "remaining binding at 1 µM", "setting": "[5]", "result": 100, "unit": "%"},
      {"measurement": "remaining binding at 1 µM", "setting": "[6]", "result": 98, "unit": "%"},
      {"measurement": "remaining binding at 1 µM", "setting": "[7]", "result": 54, "unit": "%"},
      {"measurement": "remaining binding at 1 µM", "setting": "[8]", "result": 94, "unit": "%"},
      {"measurement": "remaining binding at 1 µM", "setting": "[9]", "result": 96, "unit": "%"},
      {"measurement": "remaining binding at 1 µM", "setting": "[10]", "result": 48, "unit": "%"},
      {"measurement": "remaining binding at 1 µM", "setting": "[11]", "result": 79, "unit": "%"},
      {"measurement": "remaining binding at 1 µM", "setting": "[12]", "result": 87, "unit": "%"},
      {"measurement": "remaining binding at 1 µM", "setting": "[13]", "result": 92, "unit": "%"},
      {"measurement": "remaining binding at 1 µM", "setting": "[14]", "result": 99, "unit": "%"},
      {"measurement": "remaining binding at 1 µM", "setting": "[15]", "result": 98, "unit": "%"},
      {"measurement": "remaining binding at 1 µM", "setting": "[16]", "result": 94, "unit": "%"},
      {"measurement": "remaining binding at 1 µM", "setting": "[17]", "result": 78, "unit": "%"},
      {"measurement": "remaining binding at 1 µM", "setting": "[18]", "result": 78, "unit": "%"},
      {"measurement": "remaining binding at 1 µM", "setting": "[19]", "result": 88, "unit": "%"},
      {"measurement": "remaining binding at 1 µM", "setting": "[20]", "result": 95, "unit": "%"},
      {"measurement": "remaining binding at 1 µM", "setting": "[21]", "result": 100, "unit": "%"},
      {"measurement": "remaining binding at 1 µM", "setting": "[22]", "result": 69, "unit": "%"},
      {"measurement": "remaining binding at 1 µM", "setting": "[23]", "result": 81, "unit": "%"},
      {"measurement": "remaining binding at 1 µM", "setting": "[24]", "result": 84, "unit": "%"}
    ]}
  ]
}
